From patent publication US20240041764A1, “Sustained-Release Oral Fosamprenavir Formulation for Treatment of Reflux” (The Medical College of Wisconsin, Inc., priority 2022, published 2024)
“Also recorded” adds a separate entry of the source.

Assays:
porcine pepsin = biological target: T1, porcine pepsin (Sus scrofa, UniProt P00791); assay: peptic activity assay, fluorescence polarization with casein-Alexa647; format: biochemical
T1 construct: purchased Worthington Biochemical Corporation
Protocol: To examine whether HIV protease inhibitors bound and inhibited pepsin, we developed assays based on fluorescence polarization which measures size-dependent molecular rotation thereby permitting detection of degradation, association and dissociation events^80. A competitive binding assay was designed employing pepstatin, an inhibitor of sub-nanomolar affinity^81. Pepstatin-Alexa647 was synthesized by dissolving 1 mg pepstatin A (Sigma-Aldrich) in a 50:50 mixture of dimethylformamide (DMF) and dimethylsulfoxide (DMS) followed by the addition of N,N,N′,N′-Tetramethyl-O—(N-succinimidyl)uronium tetrafluoroborate (0.6 mg) and trimethylamine (10 μL) DMF. The mixture was stirred for 1 hour, after which 1 mg Alexa Fluor 647 Cadaverine, Disodium Salt (ThermoFisher Scientific) was added. After 2 hours, the solvents were evaporated under high vacuum (35° C.) and residue partially dissolved in 10% methanol and transferred onto a C18 cartridge (Waters Corporation, Milford, MA). Increasing percentages of methanol were used for the elution. […] An enzymatic inhibition assay was designed using casein substrate.^82 Bovine alpha casein (Sigma-Aldrich, St. Louis, MO) was labeled with Alexa Fluor 647 Carboxylic Acid, Succinimidyl Ester (ThermoFisher Scientific, Waltham, MA) as described.^82 Briefly, the two were combined at 2.5 ug/mg label to protein ratio in 0.1M sodium bicarbonate for 15 minutes and labeled casein was separated from unbound label in a Sephadex G-25 (Sigma-Aldrich) column comprised of 90×5 mm packed beads in a glass Pasteur pipette, eluted with dPBS pH7.4 (ThermoFisher Scientific). The fast-moving band (casein-bound fluorophore) was collected in ˜0.4 ml volume. Concentration of resultant probe (casein-Alexa647 in PBS-azide) was estimated via spectrophotometry using Beer's law (Implen Nanophotometer, Implen, Inc. Westlake Village, CA).
(§1) Assays were optimized using ranges of 0.3-1000 μM unlabeled pepstatin, 100-500 nM pepstatin-Alexa647 or casein-Alexa647 probe, 0.003-3 U/μl porcine pepsin (Worthington Biochemical Corporation, Lakewood, NJ), and 5-37.5% DMSO (HIV protease inhibitor diluent) in 0.1 M HCl, pH 1 with 0.01% v/v Tween-20 in 20 μl volumes in 384-well black optical plates (Nunc, Roskilde, DK) and read on a BioTek Cytation 5 (BioTek Instruments, Winooski, VT) with far red FP filter cube (excitation/emission 620/680 nm). Unlabeled pepstatin dose-response curves were used to ensure that the assays were responsive to pepsin inhibition. […] Assays were performed twice with triplicate reactions read for five minutes and mean mP plotted against probe concentration (binding assay) or read at <2 minutes intervals over 30 minutes with mean mP of plotted over time (activity assay). Half maximal inhibitory concentration (IC50) of inhibitors were calculated from kinetic traces analyzed using an online tool (https://icekat.herokuapp.com/icekat)^83. mP was normalized to blank (absent inhibitor) to derive percent bound or activity.

[1] = solubility when preparing co-crystallization solutions; format: physicochemical; conditions: saturated solution in DMSO for co-crystallization; CryoSol SM2 chosen instead
Protocol: Supernatant of saturated saquinivar solution in SM2 was combined with pepsin at 5% f.c. (v/v). Crystallization conditions were optimized by screening 200 mg/ml pepsin in the Salt RX screen (Hampton Research, Viejo, CA). […] Diffraction quality crystals (triangular bi-pyramids, approximately 200×100×100 μm) formed after 2-7 days from hanging drops of 2 ul pepsin (180-210 mg/ml) and 1 ul microseed solution serially diluted 10-100× above 3-4M ammonium chloride and 0.1M sodium acetate trihydrate pH4.6. Crystals were cryoprotected by 30% glucose, 5M ammonium chloride and 0.1 M sodium acetate trihydrate pH4.6 and plunged in liquid nitrogen. Co-crystallization with saquinavir was performed in 0.1M acetic acid rather than sodium acetate trihydrate as this permitted large crystal formation without a microseed; crystals were cryoprotected by 30% w/v glucose, 5M ammonium chloride and 0.1 M sodium acetate trihydrate pH 4.6 and plunged in liquid nitrogen.

porcine pepsin A = biological target: T2, porcine pepsin A (Sus scrofa, UniProt P00791); assay: competitive binding assay, fluorescence polarization with pepstatin-Alexa647; conditions: 100 nM probe, 0.03 U/ul porcine pepsin A, 37.5% DMSO, 0.1 M HCl pH 1
T2 construct: purchased Worthington Biochemical Corporation
Protocol: To examine whether HIV protease inhibitors bound and inhibited pepsin, we developed assays based on fluorescence polarization which measures size-dependent molecular rotation thereby permitting detection of degradation, association and dissociation events^80. A competitive binding assay was designed employing pepstatin, an inhibitor of sub-nanomolar affinity^81. Pepstatin-Alexa647 was synthesized by dissolving 1 mg pepstatin A (Sigma-Aldrich) in a 50:50 mixture of dimethylformamide (DMF) and dimethylsulfoxide (DMS) followed by the addition of N,N,N′,N′-Tetramethyl-O—(N-succinimidyl)uronium tetrafluoroborate (0.6 mg) and trimethylamine (10 μL) DMF. The mixture was stirred for 1 hour, after which 1 mg Alexa Fluor 647 Cadaverine, Disodium Salt (ThermoFisher Scientific) was added. After 2 hours, the solvents were evaporated under high vacuum (35° C.) and residue partially dissolved in 10% methanol and transferred onto a C18 cartridge (Waters Corporation, Milford, MA). Increasing percentages of methanol were used for the elution. Pepstatin-Alexa647 eluted at 45% methanol. An enzymatic inhibition assay was designed using casein substrate.^82 Bovine alpha casein (Sigma-Aldrich, St. Louis, MO) was labeled with Alexa Fluor 647 Carboxylic Acid, Succinimidyl Ester (ThermoFisher Scientific, Waltham, MA) as described.^82 Briefly, the two were combined at 2.5 ug/mg label to protein ratio in 0.1M sodium bicarbonate for 15 minutes and labeled casein was separated from unbound label in a Sephadex G-25 (Sigma-Aldrich) column comprised of 90×5 mm packed beads in a glass Pasteur pipette, eluted with dPBS pH7.4 (ThermoFisher Scientific). The fast-moving band (casein-bound fluorophore) was collected in ˜0.4 ml volume. […]
as §1, with “nm).” for “nm). Unlabeled pepstatin dose-response curves were used to ensure that the assays were responsive to pepsin inhibition.”

[2] = in vivo; cited from earlier work
[3] = prodrug relative to amprenavir; cited from earlier work
[4] = test system: LPR mouse model (pepsin-mediated laryngeal damage); assay: in vivo LPR mouse model: mechanical injury plus laryngeal pepsin instillation, H&E histology; conditions: for protection against pepsin-mediated laryngeal damage (histology): 0.3 mg/ml pepsin pH7, 4 weeks
Text: Three replicate animals per treatment condition were anticipated to suffice for verification of reproducibility in each experiment without excessive use of animal life. The three mice were randomly allocated to treatment groups. No data were excluded from analysis.
Six-week-old female Jackson A/J mice (Jackson Laboratory, Bar Harbor, ME) were fed D-62 powdered Wattenberg diet, 2 g/mouse/day^95 and allowed to acclimate for one week upon arrival prior to experiments. In accord with previously established methods for modeling aerodigestive tract damage attributed to GERD and LPR,^1,95-99 mechanical injury applied during the first two weeks of a four-week treatment course was used to predispose the laryngeal mucosa to chemical injury by pepsin/acid applied throughout the four weeks. […] Briefly, anesthetized mice were suspended by upper teeth on a slanted board under an operating microscope.
In a preliminary experiment to validate the LPR mouse model (i.e. laryngeal damage by pepsin at neutral and acidic pH), 20 μl saline (solvent control) or 0.3 mg/ml pepsin at pH7.0 or 4.0 were provided to mice (n=3) by laryngeal instillation at 24, 48, and 72 hours after mechanical injury during weeks 1 and 2 (FIG. 6); laryngeal instillation without wounding (3 days/week) continued during weeks 3 and 4. […] Mice were sacrificed at conclusion of the fourth week.
To test the protective effect of HIV protease inhibitors on pepsin-mediated damage in vivo, inhibitors were delivered by aerosol or gavage concurrently with wounding (days 2, 8) and solvent/pepsin instillation (days 3-5, 9-11, 16-18 and 23-25). Aerosol or gavage was provided on days 1-5, 8-12, 15-19, and 22-25, and mice sacrificed day 26. Mice were anesthetized with isoflurane (3% in 2.5LPM, 3-5 minutes prior to procedures) as opposed to Avertin due to frequency. […] Aerosol was generated as described^100. Briefly, a 10 ml suspension of drug in ethanol was placed in the baffle, such that the concentration would remain constant at the equilibrium solubility. Droplets of ethanol containing dissolved drug were generated by an ultrasonic atomizer (nominal frequency 1.7 MHz) and entrained by air at a flow rate of 0.5 LPM with a custom-built glass baffle (UMN Department of Chemistry Glass Shop). The aerosol cloud was then passed through a cylindrical drying column containing an annular ring of charcoal. The ethanol was removed and the emanating dry aerosol particles of pure drug were then directed into the exposure chamber. The mass deposited on filters was measured gravimetrically and total output rate (mg/min) was determined. The aerosol concentration (mass/volume of air) was calculated by dividing the total output rate by the air flow rate (0.5 LPM). The inhaled mass of drug (Minh) for each mouse was defined as Minh=[Aerosol]*RMV*t, where Aerosol is the aerosol concentration of drug, RMV is the respiratory minute volume of the mice (0.025 L/min), and t is the aerosol exposure time. […] Actual mass deposited was not determined but anticipated to be 10% of inhaled mass (the deposition fraction of […] aerosol particles in mice).
Tissues were collected, fixed in paraformaldehyde, embedded in paraffin and 4 um sections stained with hematoxylin and eosin (H&E) via automated stainer. Slides were reviewed by a board-certified pathologist (JM) blinded to treatment groups.

[5] = mice; cited from earlier work

T1 sequence (P00791 60-385): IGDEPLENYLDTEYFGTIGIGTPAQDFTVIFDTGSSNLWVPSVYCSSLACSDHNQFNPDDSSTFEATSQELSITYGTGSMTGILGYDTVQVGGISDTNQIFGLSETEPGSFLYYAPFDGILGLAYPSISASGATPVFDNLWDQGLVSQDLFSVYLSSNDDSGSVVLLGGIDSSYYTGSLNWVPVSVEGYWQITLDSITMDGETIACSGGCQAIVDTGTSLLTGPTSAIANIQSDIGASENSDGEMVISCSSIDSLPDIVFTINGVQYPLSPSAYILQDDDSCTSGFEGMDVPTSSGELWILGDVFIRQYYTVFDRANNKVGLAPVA
T2 sequence (P00791 60-385): as above

CC(C)(C)NC(=O)[C@@H]1C[C@@H]2CCCC[C@@H]2CN1C[C@@H](O)[C@H](Cc1ccccc1)NC(=O)[C@H](CC(N)=O)NC(=O)c1ccc2ccccc2n1 [saquinavir, (2S)-N-[(2S,3R)-4-[(3S,4aS,8aS)-3-(tert-butylcarbamoyl)-3,4,4a,5,6,7,8,8a-octahydro-1H-isoquinolin-2-yl]-3-hydroxy-1-phenylbutan-2-yl]-2-(quinoline-2-carbonylamino)butanediamide]
inhibited pepsin (peptic activity) (porcine pepsin; 200 nM probe, 0.01 U/μL pepsin, 5% DMSO, 0.1 M HCl pH 1): low micromolar
IC50 for pepsin (porcine pepsin; in vitro binding and inhibition assays, IC50 from kinetic traces): low micromolar range
solubility [1]: poor solubility
bound pepsin (competitive binding) (porcine pepsin A): low micromolar
side effects [2]: QT prolongation, heart block, high blood lipids and liver problems

CC(C)CN(C[C@@H](OP(=O)(O)O)[C@H](Cc1ccccc1)NC(=O)O[C@H]1CCOC1)S(=O)(=O)c1ccc(N)cc1 [fosamprenavir, [(3S)-oxolan-3-yl] N-[(2S,3R)-4-[(4-aminophenyl)sulfonyl-(2-methylpropyl)amino]-1-phenyl-3-phosphonooxybutan-2-yl]carbamate]
bioavailability [3]: improved bioavailability
laryngeal histology, drug with saline (solvent), no pepsin ([4]; aerosol): normal histology
protection against pepsin-mediated laryngeal damage (histology) ([4]; aerosol, inhaled mass 0.93 mg/kg/day fosamprenavir, 12 mg/kg/day darunavir): prevented pepsin-mediated laryngeal injury; also recorded: protected against pepsin-mediated laryngeal damage
laryngeal histology, drug with saline (solvent), no pepsin ([4]; gavage): normal histology
protection against pepsin-mediated laryngeal damage (histology) ([4]; gavage, 20 mg/kg/day fosamprenavir (Lexiva), 8.6 mg/kg/day darunavir (Prezista)): prevented pepsin-mediated laryngeal damage
protection against pepsin-mediated laryngeal damage (histology) ([4]; gavage, 20 mg/kg/day fosamprenavir (Lexiva), 8.6 mg/kg/day darunavir (Prezista), listed as Fosamprenavir): prevented pepsin-mediated laryngeal damage; also recorded: protected against pepsin-mediated laryngeal damage
protection against pepsin-mediated laryngeal damage (histology) ([4]; gavage, 20 mg/kg/day fosamprenavir (Lexiva), 8.6 mg/kg/day darunavir (Prezista), listed as Lexiva): prevents pepsin-mediated airway epithelial damage
laryngeal histology, drug with saline (solvent), no pepsin ([4]; gavage, listed as Lexiva): Normal-appearing respiratory epithelium
pharmacokinetics [5]: excellent pharmacokinetics
tolerability [2]: favorable tolerability
